How the values were obtained:
[1] = biological target: T1, Histone-lysine N-methyltransferase EZH2 (Homo sapiens, UniProt Q15910); assay: Inhibition of EZH2 in human HeLa cells assessed as inhibition of trimethylation of H3K27 after 72 hrs by AlphaLISA assay; assay type: cell-based
[2] = biological target: T1, Histone-lysine N-methyltransferase EZH2; assay: Inhibition of wild-type EZH2 in PRC2 complex (unknown origin) using RKQLATKAARK(Me3)SAPATGGVKKP-NH2 peptide substrate preincubated for 30 mins followed by addition of [3H]-SAM measured after 2 hrs by Topcount scintillation proximity assay
[3] = Protein binding in rat plasma assessed as bound fraction; assay type: ADME, cell-free; conditions: read-out: PPB (converted)
[4] = AUC (0 to infinity) in Balb/c mouse at 100 mg/kg, po formulated in 0.5 % methyl cellulose maintained at pH 3; assay type: ADME, organism-based; parameters: time infinity, route oral, dose 100 mg/kg; conditions: in vivo, pH 3, 100 mg/kg
CYP2C9 = CYP2C9 (Homo sapiens, UniProt P11712); assay: Inhibition of CYP2C9 (unknown origin) at 10 uM relative to control; assay type: ADME
Chain of CYP2C9 (P11712 whole entry): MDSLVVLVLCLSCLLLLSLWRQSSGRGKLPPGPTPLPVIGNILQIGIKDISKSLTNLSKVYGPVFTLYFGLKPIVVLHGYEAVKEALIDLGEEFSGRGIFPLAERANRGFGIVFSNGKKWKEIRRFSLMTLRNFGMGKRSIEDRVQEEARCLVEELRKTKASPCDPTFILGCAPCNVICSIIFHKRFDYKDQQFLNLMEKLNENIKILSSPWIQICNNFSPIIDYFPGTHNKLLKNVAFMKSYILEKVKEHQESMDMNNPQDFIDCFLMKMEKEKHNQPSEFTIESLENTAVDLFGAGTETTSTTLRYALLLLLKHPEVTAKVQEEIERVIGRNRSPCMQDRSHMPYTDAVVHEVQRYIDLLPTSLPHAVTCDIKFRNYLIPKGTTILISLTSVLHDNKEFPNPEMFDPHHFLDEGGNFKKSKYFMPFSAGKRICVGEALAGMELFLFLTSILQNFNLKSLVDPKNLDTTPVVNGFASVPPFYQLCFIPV

CYP2C8 = biological target: T2, CYP2C8 (Homo sapiens, UniProt P10632); assay: Inhibition of CYP2C8 (unknown origin) at 10 uM relative to control; assay type: ADME
T2 sequence (P10632 whole entry): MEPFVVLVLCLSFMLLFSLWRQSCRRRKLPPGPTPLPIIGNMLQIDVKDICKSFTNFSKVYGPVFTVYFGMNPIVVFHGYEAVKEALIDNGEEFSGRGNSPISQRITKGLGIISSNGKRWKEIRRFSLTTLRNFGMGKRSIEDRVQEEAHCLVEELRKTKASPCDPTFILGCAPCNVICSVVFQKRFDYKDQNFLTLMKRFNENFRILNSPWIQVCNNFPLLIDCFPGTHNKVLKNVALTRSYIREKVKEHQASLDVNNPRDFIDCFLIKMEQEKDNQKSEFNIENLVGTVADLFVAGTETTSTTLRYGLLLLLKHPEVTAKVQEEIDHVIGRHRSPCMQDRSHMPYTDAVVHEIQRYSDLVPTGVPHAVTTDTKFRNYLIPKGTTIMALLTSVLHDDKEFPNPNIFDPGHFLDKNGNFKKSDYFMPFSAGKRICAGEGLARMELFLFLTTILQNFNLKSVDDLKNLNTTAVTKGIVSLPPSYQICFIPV

CYP2D6 = CYP2D6 (Homo sapiens, UniProt P10635); assay: Inhibition of CYP2D6 (unknown origin) at 10 uM relative to control; assay type: ADME
Chain of CYP2D6 (P10635 whole entry): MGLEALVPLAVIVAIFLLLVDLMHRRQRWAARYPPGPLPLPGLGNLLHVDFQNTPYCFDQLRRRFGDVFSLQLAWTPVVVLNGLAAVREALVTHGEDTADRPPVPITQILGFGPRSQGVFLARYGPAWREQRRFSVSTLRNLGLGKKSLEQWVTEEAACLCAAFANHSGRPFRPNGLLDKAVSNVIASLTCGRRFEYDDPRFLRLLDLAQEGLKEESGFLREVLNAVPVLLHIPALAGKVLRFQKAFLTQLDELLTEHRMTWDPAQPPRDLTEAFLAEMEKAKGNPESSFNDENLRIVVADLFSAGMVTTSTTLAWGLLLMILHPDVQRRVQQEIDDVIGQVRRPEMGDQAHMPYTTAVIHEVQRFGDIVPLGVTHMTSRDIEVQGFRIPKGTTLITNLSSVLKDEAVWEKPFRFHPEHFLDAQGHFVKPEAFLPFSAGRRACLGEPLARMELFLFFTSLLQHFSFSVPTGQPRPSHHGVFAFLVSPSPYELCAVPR

[5] = Intrinsic clearance in dog liver microsomes assessed per mg protein; assay type: ADME, Canis lupus familiaris, Microsome
[6] = Oral bioavailability in Balb/c mouse at 100 mg/kg formulated in 0.5 % methyl cellulose maintained at pH 3; assay type: ADME, organism-based; conditions: in vivo, pH 3, 100 mg/kg
[7] = Unbound AUC in Balb/c mouse at 100 mg/kg, po formulated in 0.5 % methyl cellulose maintained at pH 3; assay type: ADME, organism-based; conditions: in vivo, pH 3, 100 mg/kg
[8] = Intrinsic clearance in rat liver microsomes assessed per mg protein; assay type: ADME, Microsome
[9] = Protein binding in mouse plasma assessed as bound fraction; assay type: ADME, cell-free; conditions: for fraction unbound: read-out: PPB (converted)
[10] = Unbound clearance in Balb/c mouse at 1 mg/kg, iv formulated with 5:25:70 DMA/PEG400/20% SBECD; assay type: ADME, organism-based; conditions: in vivo
[11] = Intrinsic clearance in mouse liver microsomes assessed per mg protein; assay type: ADME, Microsome
[12] = Cmax in Balb/c mouse at 100 mg/kg, po formulated in 0.5 % methyl cellulose maintained at pH 3; assay type: ADME, organism-based; parameters: route oral, dose 100 mg/kg; conditions: in vivo, pH 3, 100 mg/kg
[13] = Unbound Cmax in Balb/c mouse at 100 mg/kg, po formulated in 0.5 % methyl cellulose maintained at pH 3; assay type: ADME, organism-based; conditions: in vivo, pH 3, 100 mg/kg
[14] = Fraction unbound in mouse plasma; assay type: ADME, cell-free
[15] = Volume of distribution at steady in Balb/c mouse at 1 mg/kg, iv formulated with 5:25:70 DMA/PEG400/20% SBECD; assay type: ADME, organism-based; conditions: in vivo, read-out: Vdss
[16] = Clearance in Balb/c mouse at 1 mg/kg, iv formulated with 5:25:70 DMA/PEG400/20% SBECD relative to liver blood flow; assay type: ADME, organism-based; conditions: in vivo
CYP3A4 = CYP3A4 (Homo sapiens, UniProt P08684); assay: Inhibition of CYP3A4 (unknown origin) at 10 uM relative to control; assay type: ADME
Chain of CYP3A4 (P08684 whole entry): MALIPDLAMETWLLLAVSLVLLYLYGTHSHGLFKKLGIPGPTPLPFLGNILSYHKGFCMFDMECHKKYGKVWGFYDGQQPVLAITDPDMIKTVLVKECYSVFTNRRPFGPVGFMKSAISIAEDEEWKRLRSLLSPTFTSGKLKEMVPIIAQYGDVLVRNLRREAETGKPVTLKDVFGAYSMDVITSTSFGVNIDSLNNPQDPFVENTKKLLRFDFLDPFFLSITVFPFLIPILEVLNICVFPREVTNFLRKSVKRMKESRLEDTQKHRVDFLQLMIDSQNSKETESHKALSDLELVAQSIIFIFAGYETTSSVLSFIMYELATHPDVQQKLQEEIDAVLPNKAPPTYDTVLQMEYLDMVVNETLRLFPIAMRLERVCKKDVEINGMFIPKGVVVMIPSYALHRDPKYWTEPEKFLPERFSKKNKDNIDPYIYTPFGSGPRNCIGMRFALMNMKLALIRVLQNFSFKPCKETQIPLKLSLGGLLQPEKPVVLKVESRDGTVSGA

CYP1A2 = biological target: T3, CYP1A2 (Homo sapiens, UniProt P05177); assay: Inhibition of CYP1A2 (unknown origin) at 10 uM relative to control; assay type: ADME
T3 sequence (P05177 whole entry): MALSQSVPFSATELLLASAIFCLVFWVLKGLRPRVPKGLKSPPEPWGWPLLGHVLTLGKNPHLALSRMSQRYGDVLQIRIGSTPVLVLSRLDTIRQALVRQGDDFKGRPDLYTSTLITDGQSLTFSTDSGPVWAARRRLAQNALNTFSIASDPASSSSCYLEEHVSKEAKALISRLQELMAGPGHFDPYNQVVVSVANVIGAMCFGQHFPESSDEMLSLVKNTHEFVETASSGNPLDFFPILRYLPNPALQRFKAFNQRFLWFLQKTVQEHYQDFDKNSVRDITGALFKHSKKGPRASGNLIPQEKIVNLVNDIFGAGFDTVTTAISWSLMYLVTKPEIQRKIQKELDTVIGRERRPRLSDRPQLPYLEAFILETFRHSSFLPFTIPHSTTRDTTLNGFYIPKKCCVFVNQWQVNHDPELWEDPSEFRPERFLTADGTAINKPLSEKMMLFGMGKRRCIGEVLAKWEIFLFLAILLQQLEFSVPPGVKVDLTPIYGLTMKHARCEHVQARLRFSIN

[17] = Clearance in Balb/c mouse at 1 mg/kg, iv formulated with 5:25:70 DMA/PEG400/20% SBECD; assay type: ADME, organism-based; conditions: in vivo
[18] = Protein binding in dog plasma assessed as bound fraction; assay type: ADME, cell-free, Canis lupus familiaris; conditions: read-out: PPB (converted)
[19] = Half life in Balb/c mouse plasma at 1 mg/kg, iv formulated with 5:25:70 DMA/PEG400/20% SBECD; assay type: ADME, organism-based
[20] = Tmax in Balb/c mouse at 100 mg/kg, po formulated in 0.5 % methyl cellulose maintained at pH 3; assay type: ADME, organism-based; conditions: in vivo, pH 3, 100 mg/kg
[21] = Protein binding in human plasma assessed as bound fraction; assay type: ADME, cell-free; conditions: read-out: PPB (converted)
[22] = Intrinsic clearance in human liver microsomes assessed per mg protein; assay type: ADME, Microsome

T1 sequence (Q15910 whole entry): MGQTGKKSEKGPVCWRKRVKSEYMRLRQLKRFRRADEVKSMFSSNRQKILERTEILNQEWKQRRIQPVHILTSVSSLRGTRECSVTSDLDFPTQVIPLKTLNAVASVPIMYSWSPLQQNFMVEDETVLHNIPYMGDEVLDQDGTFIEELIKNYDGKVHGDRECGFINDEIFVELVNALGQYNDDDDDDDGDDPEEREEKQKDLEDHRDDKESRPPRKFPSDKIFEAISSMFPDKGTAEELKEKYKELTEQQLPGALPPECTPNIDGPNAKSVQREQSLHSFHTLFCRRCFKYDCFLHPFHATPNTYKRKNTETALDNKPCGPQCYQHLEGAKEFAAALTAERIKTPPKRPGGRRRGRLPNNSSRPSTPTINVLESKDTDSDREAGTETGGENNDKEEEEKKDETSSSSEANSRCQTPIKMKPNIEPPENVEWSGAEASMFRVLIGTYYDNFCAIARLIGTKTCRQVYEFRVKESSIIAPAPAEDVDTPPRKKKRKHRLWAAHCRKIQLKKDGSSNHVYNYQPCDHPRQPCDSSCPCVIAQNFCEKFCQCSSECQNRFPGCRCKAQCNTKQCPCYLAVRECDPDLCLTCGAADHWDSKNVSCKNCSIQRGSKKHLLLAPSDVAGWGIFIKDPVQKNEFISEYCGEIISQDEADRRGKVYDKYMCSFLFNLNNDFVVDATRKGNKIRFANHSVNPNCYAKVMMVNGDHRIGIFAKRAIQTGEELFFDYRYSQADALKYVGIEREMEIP

**Q.** What does the source list for `CCOC(=O)CN1CCC([C@@H](C)n2c(C)c(C(=O)NCc3c(OC)cc(C)[nH]c3=O)c3ccccc32)CC1`?
**A.** EC50 [1]: 260 nM; IC50 [2]: < 1 nM

**Q.** Which results are given for `COc1cc(C)[nH]c(=O)c1CNC(=O)c1c(C)n([C@H](C)C2CCN(CC(F)F)CC2)c2ccccc12`?
**A.** fraction unbound [3]: 0.169; AUC [4]: 42.01 µM·h; EC50 [1]: 39 nM; inhibition at 10 µM (CYP2C9): 25.4%; inhibition at 10 µM (CYP2C8): 18.9%; inhibition at 10 µM (CYP2D6): 26.1%; CLH [5]: 52.4 µL/min; F [6]: 91.6%; fAUC [7]: 0.924 µM·h; CLH [8]: 71.3 µL/min; PPB [9]: 97.8%; CL free [10]: 202.3 L/h/kg; CLH [11]: 131 µL/min; Cmax [12]: 52.1 µM; fCmax [13]: 1.15 µM; Fu [14]: 0.022%; Vd [15]: 1.1 L/kg; CL [16]: 82%; inhibition at 10 µM (CYP3A4): 25.2%; inhibition at 10 µM (CYP1A2): 28.6%; clearance [17]: 74.2 mL/min/kg; fraction unbound [18]: 0.357; half-life [19]: 24.1 min; Tmax [20]: 15 min; fraction unbound [21]: 0.167; IC50 [2]: 1.8 nM

**Q.** Which EC50 [1] does the source give for `COc1cc(C)[nH]c(=O)c1CNC(=O)c1c(C)n([C@H](C)C2CCN(C(=O)OC(C)C)CC2)c2ccccc12` here?
**A.** 110 nM

**Q.** And the IC50 [2]?
**A.** < 1 nM

**Q.** For `COc1cc(C)[nH]c(=O)c1CNC(=O)c1c(C)n([C@H](C)C2CCN(C(=O)C(C)C)CC2)c2ccccc12`, which EC50 [1] is on record?
**A.** 420 nM

**Q.** What about the IC50 [2] of the same molecule?
**A.** 2.5 nM

**Q.** With `COc1cc(C)[nH]c(=O)c1CNC(=O)c1c(C)n([C@H](C)C2CCNCC2)c2ccccc12` as the molecule, how does the EC50 [1] read?
**A.** 1100 nM

**Q.** What about the IC50 [2] of the same molecule?
**A.** 2 nM

**Q.** What does the source list for `COc1cc(C)[nH]c(=O)c1CNC(=O)c1c(C)n([C@H](C)C2CCN(CCC(F)(F)F)CC2)c2ccccc12`?
**A.** fraction unbound [3]: 0.026; EC50 [1]: 290 nM; inhibition at 10 µM (CYP2C9): 11.6%; inhibition at 10 µM (CYP2C8): 23.1%; inhibition at 10 µM (CYP2D6): 17.2%; CLH [5]: 35.3 µL/min; CLH [8]: 25.7 µL/min; fraction unbound [9]: 0.003; CLH [11]: 61.3 µL/min; CLH [22]: 35.4 µL/min; inhibition at 10 µM (CYP3A4): 5%; inhibition at 10 µM (CYP1A2): 19.4%; fraction unbound [18]: 0.037; fraction unbound [21]: 0.041; IC50 [2]: 2.3 nM

**Q.** Which EC50 [1] does the source give for `COc1cc(C)[nH]c(=O)c1CNC(=O)c1c(C)n([C@H](C)C2CCN(C)CC2)c2ccccc12` here?
**A.** 470 nM

**Q.** What about the IC50 [2] of the same molecule?
**A.** < 1 nM

**Q.** With `COc1cc(C)[nH]c(=O)c1CNC(=O)c1c(C)n([C@H](C)C2CCN(CC(C)(F)F)CC2)c2ccccc12` as the molecule, how does the fraction unbound [3] read?
**A.** 0.076

**Q.** And the EC50 [1]?
**A.** 20 nM

**Q.** And the inhibition at 10 µM (CYP2C9)?
**A.** 5%

**Q.** What about the inhibition at 10 µM (CYP2C8) of the same molecule?
**A.** 50.9%

**Q.** And the inhibition at 10 µM (CYP2D6)?
**A.** 7.7%

**Q.** What about the CLH [5] of the same molecule?
**A.** 68.9 µL/min

**Q.** What about the CLH [8] of the same molecule?
**A.** 86.1 µL/min

**Q.** And the fraction unbound [9]?
**A.** 0.006

**Q.** What about the CLH [11] of the same molecule?
**A.** 193 µL/min

**Q.** And the CLH [22]?
**A.** 83.8 µL/min

**Q.** What about the inhibition at 10 µM (CYP3A4) of the same molecule?
**A.** 0%

**Q.** What about the inhibition at 10 µM (CYP1A2) of the same molecule?
**A.** 0%

**Q.** And the fraction unbound [18]?
**A.** 0.064

**Q.** And the fraction unbound [21]?
**A.** 0.053

**Q.** And the IC50 [2]?
**A.** < 1 nM

**Q.** With `COc1cc(C)[nH]c(=O)c1CNC(=O)c1c(C)n([C@H](C)C2CCN(CC(F)(F)C(F)F)CC2)c2ccccc12` as the molecule, how does the EC50 [1] read?
**A.** 38 nM

**Q.** And the IC50 [2]?
**A.** 1.6 nM

**Q.** For `COc1cc(C)[nH]c(=O)c1CNC(=O)c1c(C)n([C@H](C)C2CCN(C(=O)N(C)C)CC2)c2ccccc12`, which EC50 [1] is on record?
**A.** 930 nM

**Q.** And the IC50 [2]?
**A.** 3.3 nM

**Q.** With `COc1cc(C)[nH]c(=O)c1CNC(=O)c1c(C)n([C@H](C)C2CCN(C3COC3)CC2)c2ccccc12` as the molecule, how does the EC50 [1] read?
**A.** 150 nM

**Q.** And the IC50 [2]?
**A.** < 1 nM
